Holding throughout (type): cell-based
Test [1] relates to skin sections of a hairless mouse. The test can be described thus: Skin surface potential difference relative to culture solution, substance P (SP) stimulation. The settings on record: FIG. 3.
For test [2] the test system is unchanged.
Test [3] shares this test system. The test can be described thus: Skin surface potential difference relative to culture solution, capsaicin coated on the skin surface. To be noted: FIG. 6. An excerpt: In a second method, upon measuring the skin surface condition of the first method, stimulation is imparted further to the skin model comprising a skin section and a culture solution to measure aforementioned potential difference. This potential difference changes as stimulation is imparted. This change means that a stream of ions has occurred in the epidermis. The direction of a stream of ions differs depending on stimulation. When there is a change compared to the value of untreated skin, it is interpreted that stimulation producing mobility of ions is imparted to the epidermis. The degree of skin stimulation is measured from the changed value. Upon imparting stimulation, the place of stimulation may be on skin surface or culture solution. In the case of skin surface, examples of methods for imparting stimulation include coating skin with a stimulating substance and physical stimulation. Also, in the case of culture solution, the method used is addition of stimulating substances. Examples of these stimulating substances include neuropeptide, histamine, surfactant, organic acid, and capsaicin. […] In addition, examples of said physical stimulation include barrier destruction by a cellophane adhesive tape and the like.

Where two headings read alike, the source gives them in different places. No end group written: not given here.

In the case of “[D-Arg1, D-Trp7, 9, Leu11]-SubstanceP [SP antagonist]”, in test [1] (drug added to culture solution before adding SP, observed for 2 hours), the “inhibition of the SP-induced change in potential difference” value is “no rapid and significant change in potential difference is produced”.

On to `NC1=N[C@H](O)[C@H]2[C@H]3O[C@]4(O)O[C@@H]([C@@H](O)[C@@]2(N1)[C@@H]4O)[C@]3(O)CO` [TTX, tetrodotoxin], for which, in test [2], the “inhibition of the tape-stripping-induced change in potential difference” value is listed as “does not inhibit the change in a potential difference”.

For the molecule `Nc1ccncc1` [AP, aminopyridine], the “inhibition of the tape-stripping-induced change in potential difference” value in test [2] (drug added to culture solution after tape stripping, average of five measurements, FIG. 4, FIG. 5) is recorded as “reduces the change in potential difference”.

For `Oc1cc2c(cc1O)CN(C(=S)NCCc1ccc(Cl)cc1)CCC2` [capsazepine], in test [3] (drug coated on skin surface after capsaicin), the “inhibition of the capsaicin-induced change in potential difference” value was “the range of change in potential difference is reduced”.

With “substance P (RPKPQQFFGLM; ends and bridges not checked; UniProt P20366 58-68, looked up) [SP, neuropeptide used as a stimulating substance]”, in test [1] (SP added to culture solution), the “time after addition when the potential difference returns to a value close to control” value is 2 h and the “time of peak of the potential difference change after addition” value was found to be 1 h. For the same molecule, the “change in potential difference of the skin surface relative to culture solution after stimulating substance” value in test [1] (SP added to culture solution, compared with non-treated skin surface (control), average of five measurements) was “a rapid change in a potential difference is produced”.

For the molecule `COc1cc(CNC(=O)CCCC/C=C/C(C)C)ccc1O` [capsaicin], in test [3] (capsaicin coated on skin surface), the “time of maximum change in potential difference after coating” value is 0.5 h. Besides, in test [3] (capsaicin coated on skin surface, compared with non-treated skin surface (control), average of five measurements), the “change in potential difference of the skin surface relative to culture solution after stimulating substance” value is “a rapid change in potential difference”.
